{"source": "paper PMC12606624", "about": "(Journal of Chemical Information and Modeling, 2025)", "key": {"[1]": {"tested_on": "monomeric His-RAD51 [F86E, A89E]", "assay": "Static light scattering (SLS) binding test, SEC columns in tandem", "quoted_text": "Static light scattering (SLS) analyses were performed on a Viscotek GPCmax/TDA (Malvern, UK) instrument, connected in tandem with a series of two TSKgel G3000PWxl size-exclusion chromatography columns (Tosoh Bioscience) as already described in ref . For all the experiments, the system was equilibrated with buffer containing 20 mM Hepes pH 8.00, 100 mM Na2SO4, and 5% glycerol. […] Data analysis was performed using Viscotek software, calibrating the instrument with Bovine Serum Albumin at 5 mg/mL. Data were exported as .csv files and regraphed using GraphPad Prism 10."}, "His-RAD51 [F86E, A89E]": {"tested_on": "His-RAD51 [F86E, A89E]", "assay": "Biolayer interferometry (BLI), bioBRC4 immobilized on Streptavidin biosensors", "type": "binding", "conditions": "460, 230 and 115 nM His-RAD51 [F86E, two replicates, pH 8.00, 25 °C, 180 s association, 180 s dissociation", "method": "Biolayer interferometry (BLI) experiments were performed by utilizing an Octet K2 system (Sartorius). All BLI experiments were carried out in an assay buffer containing 20 mM Hepes, pH 8.00, 100 mM Na2SO4, 5% glycerol, 0.05% Tween 20, 0.1% PEG8000, and 0.5 mM Sodium Deoxycholate. The following protocol was applied: 60 s baseline, 240 s loading, 240 s baseline, 180 s association, 180 s dissociation. For every step, shaking at 1000 rpm was enabled, and the temperature was set at 25 °C. Streptavidin Octet biosensors (18-5019, Sartorius) were initially dipped into assay buffer to record an initial baseline for 60 s. BioBRC4 was solubilized in 100% DMSO at a 2 mM concentration, diluted at a final 1 μM concentration in assay buffer, and then immobilized to the Streptavidin sensor through a 240 s loading step. After the loading stage, a second baseline of 240 s was recorded in wells containing only assay buffer to verify the stability of the signal and remove unbound peptide. […] Data were analyzed using Octet Analysis Studio 12.2 by subtracting, from recorded sensorgrams, the signals of both the reference well and reference sensors to remove the signals due to nonspecific binding. The recorded sensorgrams were corrected by aligning to the average of the second baseline steps and applying Savitzky–Golay filtering and interstep correction based on the second baseline step. […]"}, "[2]": {"tested_on": "monomeric RAD51 (His-RAD51[F86E, A89E])", "assay": "Cross-linking with BS3 or EDAC, Coomassie blue SDS-PAGE and Western blot", "type": "binding", "conditions": "Coomassie blue-stained SDS-PAGE; BS3 1 mM, 1:1; EDAC 0.2% (w/v), 1:2", "method": "For cross-linking with bis(sulfosuccinimidyl)-suberate (BS3), the purified His-RAD51[F86E, A89E] concentration was adjusted to 24 μM (=0.98 mg/mL). […] The mixture was incubated for 30 min at 20 °C on a thermoblock to allow for complex formation and then cross-linked with a final concentration of 1 mM BS3 (previously solubilized in PBS as a 50 mM stock). After 30 min at the same temperature, 4× Laemmli Sample Buffer (BioRad #1610747) was added to cross-linked samples and boiled at 95 °C for 5 min. […] The mixture was incubated for 1 h at 20 °C to allow for complex formation and then cross-linked with a final concentration of 0.2% (w/v) EDAC (previously solubilized in DMSO as a 10% w/v stock) for 1 h at the same temperature. 4× Laemmli Sample Buffer (BioRad #1610747) was then added to cross-linked samples and boiled at 95 °C for 5 min.\nThe efficiency of cross-linking reactions was evaluated through Coomassie blue staining and Western blot (WB) analysis. Prepared cross-linked samples were resolved using a 4–15% SDS-PAGE gel (Criterion TGX Precast Midi Protein Gel), which was stained using page blue protein staining solution (Thermo Fisher, 24620) according to manufacturer protocols. […] After three washes in TBS-T, chemiluminescence was detected using the Clarity Western ECL substrate (Biorad, #1705061), and images were recorded using a ChemiDoc MP Imaging System (Biorad). […]"}}}
{"substance": "Bio-Ahx-KEPTLLGFHTASGKKVKIAKESLDKVKNLFDEKEQ-COOH [bioBRC4, modified version of BRC4 harboring a biotin at the N-ter]", "values": [{"measurement": "binding to monomeric RAD51", "setting": "[1]; SLS and BLI (two orthogonal methods), SLS: RAD51 [F86E, A89E] 24 μM, 1 h at 25 °C, 4-fold excess peptide, 20 mM Hepes pH 8.00, 100 mM Na2SO4, 5% glycerol, 5% DMSO for BioBRC4", "value": "confirmed the binding of bioBRC4 to monomeric RAD51"}, {"measurement": "effect of biotin modification on binding to monomeric RAD51", "setting": "[1]; bioBRC4 vs BRC4, assessed from SLS and BLI (Figure S3)", "value": "did not negatively affect its binding to monomeric RAD51"}, {"measurement": "binding to monomeric RAD51", "setting": "His-RAD51 [F86E, A89E]", "value": "showing the binding of monomeric His-"}, {"measurement": "cross-linking to monomeric RAD51, BS3 versus EDAC", "setting": "[2]", "value": "BS3 cross-linked bioBRC4 to the monomeric RAD51 more effectively than EDAC"}]}
